Measurements as given in US10471046B2, “Method for treating, preventing, or reducing the risk of skin infection” (Melinta Subsidiary Corp., priority 2014, dated 2019).
In brackets after ≈: the same amount, converted by molar mass.

test system: S. aureus; test: Minimum inhibitory concentrations (MICs) for S. aureus of exemplary compounds (Table 2); assay type: cell-based; conditions: Staphylococcus aureus, minimum inhibitory concentrations for S. aureus; read-out: MICs
Description: Exemplary compounds in accordance with the invention are listed in Table 2 with their minimum inhibitory concentrations (MICs) (μg/mL) for S. aureus:
Furthermore, the antibiotic compounds can be assayed for anti-proliferative or anti-infective properties on a cellular level. For example, where the target organism is a microorganism, the activity of compounds of interest can be assayed by growing the microorganisms of interest in media either containing or lacking the compound. Growth inhibition can be indicative that the molecule could be acting as a protein synthesis inhibitor. […] For this purpose, a panel of bacterial strains can be assembled to include a variety of target pathogenic species, some containing resistance mechanisms that have been characterized. Use of such a panel of organisms permits the determination of structure-activity relationships not only in regards to potency and spectrum, but also with a view to obviating resistance mechanisms. The assays can be performed in microtiter trays according to conventional methodologies as published by The National Committee for Clinical Laboratory Standards (NCCLS) guidelines (NCCLS. M7-A5-Methods for Dilution Antimicrobial Susceptibility Tests for Bacteria That Grow Aerobically; Approved Standard-Fifth Edition. NCCLS Document M100-S12/M7 (ISBN 1-56238-394-9)).

SMILES	MIC [µg/mL]
CC(=O)NC[C@H]1CN(c2ccc(-c3ccc(CN4CCN(CCO)CC4)cc3)c(F)c2)C(=O)O1 [Compound 1029, N-(3-{2-Fluoro-4′-[4-(2-hydroxy-ethyl)-piperazin-1-ylmethyl]-biphenyl-4-yl}-2-oxo-oxazolidin-5-(S)-ylmethyl)-acetamide]	2 (≈ 4.25 µM)
CC(=O)NC[C@H]1CN(c2ccc(-c3ccc(S(=O)(=O)Cc4cc[n+]([O-])cc4)cc3)c(F)c2)C(=O)O1 [Compound 3004, N-{3-[2-Fluoro-4′-(1-oxy-pyridin-4-ylmethanesulfonyl)-biphenyl-4-yl]-2-oxo-oxazolidin-5-(S)-ylmethyl}-acetamide]	4 (≈ 8.01 µM)
CC(=O)NC[C@H]1CN(c2ccc(-c3ccc(CNC(=O)C4CNC4)cc3)c(F)c2)C(=O)O1 [Compound 4291, Azetidine-3-carboxylic acid {4′-[5-(S)-(acetylamino-methyl)-2-oxo-oxazolidin-3-yl]-2′-fluoro-biphenyl-4-ylmethyl}-amide]	8 (≈ 18.2 µM)
O=C1O[C@@H](Cn2ccnn2)CN1c1ccc(-c2ccc(Cn3ccnc3)cc2)c(F)c1 [Compound 1084, 3-(2-Fluoro-4′-imidazol-1-ylmethyl-biphenyl-4-yl)-5-(R)-[1,2,3]triazol-1-ylmethyl-oxazolidin-2-one]	0.25 (≈ 0.597 µM)
CC(=O)NC[C@H]1CN(c2ccc(-c3ccc(CSCC4CO4)cc3)c(F)c2)C(=O)O1 (stereo partly drawn) [Compound 4226, N-[3-(2-Fluoro-4′-oxiranylmethylsulfanylmethyl-biphenyl-4-yl)-2-oxo-oxazolidin-5-(S)-ylmethyl]-acetamide]	1 (≈ 2.32 µM)
CC(=O)NC[C@H]1CN(c2ccc(-c3ccc(CNCc4cccnc4)cc3)c(F)c2)C(=O)O1 [Compound 4025, N-[3-(2-Fluoro-4′-{[(pyridin-3-ylmethyl)-amino]-methyl}-biphenyl-4-yl)-2-oxo-oxazolidin-5-(S)-ylmethyl]-acetamide]	1 (≈ 2.23 µM)
CC(=O)NC[C@H]1CN(c2ccc(-c3ccc(CNNC(=O)c4cccnc4)cc3)c(F)c2)C(=O)O1 [Compound 4237, N-(3-{2-Fluoro-4′-[N′-(pyridine-3-carbonyl)-hydrazinomethyl]-biphenyl-4-yl}-2-oxo-oxazolidin-5-(S)-ylmethyl)-acetamide]	0.25 (≈ 0.524 µM)
CC(=O)NC[C@H]1CN(c2ccc(-c3ccc(Cn4cnnn4)nc3)c(F)c2)C(=O)O1 [Compound 1035, N-{3-[3-Fluoro-4-(6-tetrazol-1-ylmethyl-pyridin-3-yl)-phenyl]-2-oxo-oxazolidin-5-(S)-ylmethyl}-acetamide]	0.5 (≈ 1.22 µM)
CC(=O)NC[C@H]1CN(c2ccc(-c3ccc(CNC(=O)/C=C/c4cccnc4)cc3)c(F)c2)C(=O)O1 [Compound 4002, N-{4′-[5-(S)-(Acetylamino-methyl)-2-oxo-oxazolidin-3-yl]-2′-fluoro-biphenyl-4-ylmethyl}-3-pyridin-3-yl-acrylamide]	4 (≈ 8.19 µM)
CCc1ncc(CNCc2ccc(-c3ccc(N4C[C@H](CNC(C)=O)OC4=O)cc3F)cc2)[nH]1 [Compound 4124, N-[3-(4′-{[(2-Ethyl-3H-imidazol-4-ylmethyl)-amino]-methyl}-2-fluoro-biphenyl-4-yl)-2-oxo-oxazolidin-5-(S)-ylmethyl]-acetamide]	16 (≈ 34.4 µM)
CC(=O)NC[C@H]1CN(c2ccc(-c3ccc(CNCc4cccnc4N)cc3)c(F)c2)C(=O)O1 [Compound 4152, N-[3-(4′-{[(2-Amino-pyridin-3-ylmethyl)-amino]-methyl}-2-fluoro-biphenyl-4-yl)-2-oxo-oxazolidin-5-(S)-ylmethyl]-acetamide]	2 (≈ 4.31 µM)
CC(=O)NC[C@H]1CN(c2ccc(-c3ccc(Cn4cnc5c(NCCO)ncnc54)cc3)c(F)c2)C(=O)O1 [Compound 1099, N-(3-{2-Fluoro-4′-[6-(2-hydroxy-ethylamino)-purin-9-ylmethyl]-biphenyl-4-yl}-2-oxo-oxazolidin-5-(S)-ylmethyl)-acetamide]	2 (≈ 3.85 µM)
CC(=O)NC[C@H]1CN(c2ccc(-c3ccc(CNCc4ccc(C)o4)cc3)c(F)c2)C(=O)O1 [Compound 4081, N-[3-(2-Fluoro-4′-{[(5-methyl-furan-2-ylmethyl)-amino]-methyl}-biphenyl-4-yl)-2-oxo-oxazolidin-5-(S)-ylmethyl]-acetamide]	2 (≈ 4.43 µM)
CC(=O)NC[C@H]1CN(c2ccc(-c3ccc(SCc4ccncc4)cc3)c(F)c2)C(=O)O1 [Compound 3001, N-{3-[2-Fluoro-4′-(pyridin-4-ylmethylsulfanyl)-biphenyl-4-yl]-2-oxo-oxazolidin-5-(S)-ylmethyl}-acetamide]	1 (≈ 2.21 µM)
CC(=O)NC[C@H]1CN(c2ccc(-c3ccc(CN4CC[C@@H](O)C4)cc3)c(F)c2)C(=O)O1 [Compound 1088, N-{3-[2-Fluoro-4′-(3-(R)-hydroxy-pyrrolidin-1-ylmethyl)-biphenyl-4-yl]-2-oxo-oxazolidin-5-(S)-ylmethyl}-acetamide]	4 (≈ 9.36 µM)
CC(=O)NC[C@H]1CN(c2ccc(-c3ccc(CN(C)Cc4c(C)nc(O)nc4O)cc3)c(F)c2)C(=O)O1 [Compound 4036, N-[3-(4′-{[(2,4-Dihydroxy-6-methyl-pyrimidin-5-ylmethyl)-methyl-amino]-methyl}-2-fluoro-biphenyl-4-yl)-2-oxo-oxazolidin-5-(S)-ylmethyl]-acetamide]	4 (≈ 7.85 µM)
CNc1nc(CNCc2ccc(-c3ccc(N4C[C@H](CNC(C)=O)OC4=O)cc3F)cc2)ns1 [Compound 4180, N-[3-(2-Fluoro-4′-{[(5-methylamino-[1,2,4]thiadiazol-3-ylmethyl)-amino]-methyl}-biphenyl-4-yl)-2-oxo-oxazolidin-5-(S)-ylmethyl]-acetamide]	1 (≈ 2.06 µM)
CC(=O)NC[C@H]1CN(c2ccc(-c3ccc(CN[C@@H](Cc4c[nH]c5ccccc45)C(N)=O)cc3)c(F)c2)C(=O)O1 [Compound 4175, 2-({4′-[5-(S)-(Acetylamino-methyl)-2-oxo-oxazolidin-3-yl]-2′-fluoro-biphenyl-4-ylmethyl}-amino)-3-(S)-(1H-indol-3-yl)-propionamide]	2 (≈ 3.68 µM)
CNc1ncnc2c1ncn2Cc1ccc(-c2ccc(N3C[C@H](CNC(C)=O)OC3=O)cc2F)cc1 [Compound 1106, N-{3-[2-Fluoro-4′-(6-methylamino-purin-9-ylmethyl)-biphenyl-4-yl]-2-oxo-oxazolidin-5-(S)-ylmethyl}-acetamide]	1 (≈ 2.04 µM)
CC(=O)NC[C@H]1CN(c2ccc(-c3ccc(Cn4ccnc4)cc3)c(F)c2)C(=O)O1 [Compound 1008, N-[3-(2-Fluoro-4′-imidazol-1-ylmethyl-biphenyl-4-yl)-2-oxo-oxazolidin-5-(S)-ylmethyl]-acetamide]	0.5 (≈ 1.22 µM)
O=C1O[C@@H](Cn2ccnn2)CN1c1ccc(-c2ccc(CNCc3cnn[nH]3)cc2)c(F)c1 [Compound 4268, 3-(2-Fluoro-4′-{[(3H-[1,2,3]triazol-4-ylmethyl)-amino]-methyl}-biphenyl-4-yl)-5-(R)-[1,2,3]triazol-1-ylmethyl-oxazolidin-2-one]	0.25 (≈ 0.557 µM)
CC(=O)NC[C@H]1CN(c2ccc(-c3ccc(CNC(=O)/C=C/c4c(C)[nH]c(=O)[nH]c4=O)cc3)c(F)c2)C(=O)O1 [Compound 4001, N-{4′-[5-(S)-(Acetylamino-methyl)-2-oxo-oxazolidin-3-yl]-2′-fluoro-biphenyl-4-ylmethyl}-3-(6-methyl-2,4-dioxo-1,2,3,4-tetrahydro-pyrimidin-5-yl)-acrylamide]	0.25 (≈ 0.467 µM)
CC(=O)NC[C@H]1CN(c2ccc(-c3ccc(CNC(=O)[C@@H]4C=CCN4)cc3)c(F)c2)C(=O)O1 [Compound 4306, 2,5-Dihydro-1H-pyrrole-2-(S)-carboxylic acid {4′-[5-(S)-(acetylamino-methyl)-2-oxo-oxazolidin-3-yl]-2′-fluoro-biphenyl-4-ylmethyl}-amide]	2 (≈ 4.42 µM)
CC(=O)NC[C@H]1CN(c2ccc(-c3ccc(CSc4nc(C)cs4)cc3)c(F)c2)C(=O)O1 [Compound 2031, N-{3-[2-Fluoro-4′-(4-methyl-thiazol-2-ylsulfanylmethyl)-biphenyl-4-yl]-2-oxo-oxazolidin-5-(S)-ylmethyl}-acetamide]	1 (≈ 2.12 µM)
CC(=O)NC[C@H]1CN(c2ccc(-c3ccc(CNC(C)c4cnn[nH]4)cc3)c(F)c2)C(=O)O1 (mixture of isomers) [Compound 4278, N-[3-(2-Fluoro-4′-{[1-(R/S)-(3H-[1,2,3]triazol-4-yl)-ethylamino]-methyl}-biphenyl-4-yl)-2-oxo-oxazolidin-5-(S)-ylmethyl]-acetamide]	2
COc1nc(C)c(/C=C/C(=O)NCc2ccc(-c3ccc(N4C[C@H](CNC(C)=O)OC4=O)cc3F)cc2)c(O)n1 [Compound 4004, N-{4′-[5-(S)-(Acetylamino-methyl)-2-oxo-oxazolidin-3-yl]-2′-fluoro-biphenyl-4-ylmethyl}-3-(4-hydroxy-2-methoxy-6-methyl-pyrimidin-5-yl)-acrylamide]	2 (≈ 3.64 µM)
CC(=O)NC[C@H]1CN(c2ccc(-c3ccc(/C=N/Nc4nccc(C(F)(F)F)n4)cc3)c(F)c2)C(=O)O1 [Compound 2042, N-(3-{2-Fluoro-4′-[(4-trifluoromethyl-pyrimidin-2-yl)-hydrazonomethyl]-biphenyl-4-yl}-2-oxo-oxazolidin-5-(S)-ylmethyl)-acetamide]	128 (≈ 248 µM)

same assay, conditions: Staphylococcus aureus, read-out: MICs

SMILES	MIC [µg/mL]
CC(=O)NC[C@H]1CN(c2cc(F)c(-c3ccc(Cn4cc(CN(C)C)nn4)cc3)c(F)c2)C(=O)O1 [Compound 1019, N-{3-[4′-(4-Dimethylaminomethyl-[1,2,3]triazol-1-ylmethyl)-2,6-difluoro-biphenyl-4-yl]-2-oxo-oxazolidin-5-(S)-ylmethyl}-acetamide]	2 (≈ 4.13 µM)
